Measurements from patent US20040019092A1, “Non-peptide somatostatin receptor ligands” (priority 2001, published 2004).
Several values for one entry are separate records, joined by “and”; a condition that tells them apart may be missing. Equal entries are not always repeated.

Tests used:
sst2 = sst2 (Homo sapiens, UniProt P30874); experiment: sst2 cyclase (second messenger studies); format: cell-based
Text: In particular the compounds of the invention bind to somatostatin receptors. More particularly they are selective agonists at Somatostatin sst2 receptors, as determined in radioligand binding and second messenger studies (see for example K. Kaupmann et al., FEBS LETTERS 1993, 331, […]).

[1] = biological target: T1, SS-1 sites (sst2 receptors) (Rattus norvegicus, UniProt P30680); experiment: Ex-vivo binding of [^125I]-labeled Tyr^3 analogue of Octreotride (SS-1/sst2) in rat cortex and hippocampus after s.c. dosing; design: species or system Wistar rats; conditions: for NS non specific binding, individual animals / NS non specific binding, mean / SB specific binding, individual animals / SB specific binding, mean / TB total binding, individual animals / TB total binding, mean / percent specific binding remaining compared to controls: Tyr^3-Oct, 60 min
T1 construct: from tissue; host or cells: Wistar rat cerebral cortex and hippocampus homogenate
T1 sequence (P30680 whole entry): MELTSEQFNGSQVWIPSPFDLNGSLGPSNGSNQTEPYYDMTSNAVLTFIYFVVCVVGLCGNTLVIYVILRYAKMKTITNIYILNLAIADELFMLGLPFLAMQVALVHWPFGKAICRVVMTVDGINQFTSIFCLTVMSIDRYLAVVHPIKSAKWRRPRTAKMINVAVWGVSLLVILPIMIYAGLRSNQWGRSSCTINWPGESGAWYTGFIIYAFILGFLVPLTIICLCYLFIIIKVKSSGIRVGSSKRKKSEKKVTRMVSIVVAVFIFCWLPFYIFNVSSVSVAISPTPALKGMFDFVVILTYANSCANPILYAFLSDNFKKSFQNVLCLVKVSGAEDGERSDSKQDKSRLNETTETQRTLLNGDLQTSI
Protocol: Ex-vivo binding was used to determine to whether compound 14 (a potent sst2 receptor selective hydantoin) when applied peripherally to rates can cross the blood brain barrier, as robust behavioral models are not fully characterized and blood-brain penetration models are not routinely available. […] The rats were given saline or drug sub-cutaneously at the indicated dose (in saline) and killed 60 minutes after application with CO2. The brain was removed and placed on ice; the cerebral cortex and hippocampus were dissected out and weighted. […] The homogenate was stored on ice and used immediately or deep frozen (-70° C.) until used (1-3 days). […] The filters were dried and counted in a Wallac Beta plate counter. The tables list the effects of compound 14 on cortex (Table 6) and hippocampus (Table 7) binding at the doses and times indicated (see also FIGS. 3 and 4). TB=total binding, NS=non specific binding, SB=specific binding. The values are indicated in cpm for individual animals, mean, n=number of animals, sem=standard error of the mean; percent=% specific binding remaining following treatment compared to controls.

[2] = Unidirectional brain extraction (Brain Uptake Index), single intracarotid injection; format: in vivo, Wistar rats; conditions: rat, 5 s after intracarotid injection, Ringer buffer as vehicle
Protocol: The unidirectional influx for [^14C]-42 was measured by the brain sampling single injection technique in adult male Wistar rats (˜220 g) under anesthesia (ketamine 130 mg/kg i.m., xylazine 1.3 mg/kg i.m.) (Oldendorf, W. H. “Measurement of brain uptake of radiolabeled substances using tritiated water internal standard” Brain Res., 1970, 24, 372-376). A bolus of ˜220 μL 0.001 M HEPES-buffered Ringer's solution pH 7.4, or rat plasma, was rapidly injected into the common carotid artery. The bolus contained [^14C]-42 (68 μg/mL) together with tritiated water (25 μCi/mL); the amount of ethanol in the injectate was 1% (v/v). The animals were decapitated 5 seconds after the injection. […] The percentage BUI (Brain Uptake Index) was calculated as […]
The brain extraction ratio E was calculated from E=BUI*0.62, where 0.62 represents the brain extraction ratio of tritiated water (Pardridge, W. M. et al. “Absence of albumin receptor on brain capillaries in vivo or in vitro” Am. J. Physiol, 1985, 249, E264-E267). In order to quantify a possible sequestration of [^14C]-42 by the brain microvasculature, the brain hemispheres of 3 rats were submitted to capillary depletion (Triguero, D, et al. “Capillary depletion method for quantifying the blood-brain barrier transcytosis of circulating peptides and plasma proteins” J. Neurochem, 1990, 54, 1882-1888). […]

[3] = Plasma protein binding, equilibrium dialysis, rat plasma; format: in vitro ADME
Protocol: In vitro blood distribution and plasma protein binding. For blood distribution studies, fresh, heparinized rat blood (n=3) was spiked with [^14C]-42 to achieve the final concentrations of 5, 50, 500 and 5000 ng/mL. After a 30-minutes incubation at 4° C., 22° C. and 37° C., the samples were centrifuged (1600×g, 10 minutes, at the incubation temperature) to get plasma. The fraction free of 42 in plasma of rat and human was determined by equilibrium dialysis. Phosphate buffer was spiked with [^14C]-42 (50, 500, 5000 ng/mL) and dialyzed versus blank rat and human plasma at 37° C. for 2 hours. The radioactivity was determined in spiked blood samples, in plasma obtained after centrifugation and in both compartments after dialysis.

[4] = Capillary depletion of brain hemispheres; format: in vivo, rat; conditions: n=3 rats
Protocol: The brain extraction ratio E was calculated from E=BUI*0.62, where 0.62 represents the brain extraction ratio of tritiated water (Pardridge, W. M. et al. “Absence of albumin receptor on brain capillaries in vivo or in vitro” Am. J. Physiol, 1985, 249, E264-E267). In order to quantify a possible sequestration of [^14C]-42 by the brain microvasculature, the brain hemispheres of 3 rats were submitted to capillary depletion (Triguero, D, et al. “Capillary depletion method for quantifying the blood-brain barrier transcytosis of circulating peptides and plasma proteins” J. Neurochem, 1990, 54, 1882-1888). The ^14C-radioactivity observed in the pellet (capillary bed/endothelial cells and pericytes) was compared to the ^14C-radioactivity observed in the supernatant (transcytosis space/interstitial fluid).

[5] = male, Wistar, rat, in vivo, iv
Protocol: The pharmacokinetic study was performed with 3 male Wistar rats (BRL) weighing 300-330 g with a one week interval between administration phases. The day before the first dosing, the rats underwent surgical implantation of an in-dwelling cannula; the right femoral artery was cannulated and the tube was passed subcutaneously to emerge at the back of the neck. The animals were individually housed in metabolism cages and fasted overnight before administrations.
The dose solution was administered (5 mL/kg) by gastric incubation.
The dose solution was administered (2 mL/kg) into the surgically exposed femoral vein.
During the study, 18 blood samples (100-500 μL) were taken, up to 48 hours post-dose from the cannulated femoral artery representing a total volume of 5.7 mL blood. The loss of blood was compensated by infusion of 6 times 1 mL of blood from donor rats. Urine samples were collected up to 48 hours post-dose. For the analysis of the in vivo brain distribution, 3 male rats were intravenously dosed (1 mg/kg or 72 μCi/kg) as described above. At 0.5 hours after administration, the rats were sacrificed; blood and brain were collected.
Determination of radioactivity in blood, plasma, brain homogenates and in urine, was carried out by direct liquid scintillation counting. Prior to radiometric determination, blood and tissue were solubilized in Solutron (Kontron Instruments, Zurich, Switzerland). After adding 10 mL of scintillation cocktail (Lumasafe, Lumac, Landgraaf, the Netherlands), all samples were counted in Tri-carb liquid scintillation analyzer (Canberra Packard, IL).
The procedure involved the addition of 5 μg of non-radiolabeled 42 to each blood sample as an internal standard. After adding 1 mL of acetonitrile, the sample was mixed with a Polytron mixer and centrifuged (234000×g, 30 minutes) in a Beckman centrifuge (Model TL100). The supernatant was evaporated in a vacuum centrifuge (Univapo 150H, Zivy). The residue was reconstituted in 250 μL of mobile phase-water (3:1 v/v) and centrifuged (3000×g, 60 s). The supernatant (200 μL) was injected onto HPLC. […] Compound 42 was separated from potential metabolites and endogenous compounds on a RP18 endcapped Superspher column, 125 mm×4 mm (Merck) at 45° C. The mobile phase consisted of 0.1% tetramethylammonium hydroxide—acetonitrile (500:500 v/v). The flow rate was 1 mL/min; the effluent was monitored at 260 nm. […] The limit of quantification was 0.3 ng/mL.
The peeling method was applied to describe the data by a compartment model approach, characterized by the following equation: C═C1*e^λ1−t+C2*e^λ2−t. The initial estimates of C1, λ1, C2, λ2 were taken to generate the best fit using the computer software ELSFIT. The estimates for half-lives were calculated as T1/2λi=ln2/λi.

Sequence of sst2 (P30874 whole entry, species assumed): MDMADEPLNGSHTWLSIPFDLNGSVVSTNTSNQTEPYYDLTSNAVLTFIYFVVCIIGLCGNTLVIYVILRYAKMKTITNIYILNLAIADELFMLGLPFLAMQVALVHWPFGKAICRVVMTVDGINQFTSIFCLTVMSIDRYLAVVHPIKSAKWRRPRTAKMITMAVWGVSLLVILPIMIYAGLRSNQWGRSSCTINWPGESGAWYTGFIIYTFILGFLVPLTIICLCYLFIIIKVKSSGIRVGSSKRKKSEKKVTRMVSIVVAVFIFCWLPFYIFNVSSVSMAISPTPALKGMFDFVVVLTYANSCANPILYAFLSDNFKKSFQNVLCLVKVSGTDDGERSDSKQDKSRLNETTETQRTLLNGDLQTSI

SMILES: Cc1cccc2c(CC3C(=O)N(CCCCCN)C(=O)N3S(=O)(=O)c3ccc(Oc4ccc(O)cc4)c(C#N)c3)c[nH]c12 (stereo not shown) [Compound 14]
- sst2 cyclase pEC50 (sst2): 9.32
- maximal decrease of sst2 (SS-1) binding ([1]; cortex and hippocampus, 10 mg/kg subcutaneous, 60 minutes): about 20%
- NS non specific binding, individual animals ([1]; cortex, 0.3 mg/kg s.c.): 2753 cpm and 2634 cpm and 2685 cpm
- NS non specific binding, mean ([1]; cortex, 0.3 mg/kg s.c.): 2691 cpm
- SB specific binding, individual animals ([1]; cortex, 0.3 mg/kg s.c.): 22427 cpm and 21257 cpm and 23789 cpm
- SB specific binding, mean ([1]; cortex, 0.3 mg/kg s.c.): 22491 cpm
- TB total binding, individual animals ([1]; cortex, 0.3 mg/kg s.c.): 25180 cpm and 23891 cpm and 26474 cpm
- TB total binding, mean ([1]; cortex, 0.3 mg/kg s.c.): 25182 cpm
- percent specific binding remaining compared to controls ([1]; cortex, 0.3 mg/kg s.c.): 98%
- NS non specific binding, individual animals ([1]; cortex, 1 mg/kg s.c.): 2623 cpm and 2705 cpm and 2642 cpm
- NS non specific binding, mean ([1]; cortex, 1 mg/kg s.c.): 2657 cpm
- SB specific binding, individual animals ([1]; cortex, 1 mg/kg s.c.): 19722 cpm and 23378 cpm and 21824 cpm
- SB specific binding, mean ([1]; cortex, 1 mg/kg s.c.): 21641 cpm
- TB total binding, individual animals ([1]; cortex, 1 mg/kg s.c.): 22345 cpm and 26063 cpm and 24466 cpm
- TB total binding, mean ([1]; cortex, 1 mg/kg s.c.): 24298 cpm
- percent specific binding remaining compared to controls ([1]; cortex, 1 mg/kg s.c.): 94%
- NS non specific binding, individual animals ([1]; cortex, 3 mg/kg s.c.): 2519 cpm and 2511 cpm and 2559 cpm
- NS non specific binding, mean ([1]; cortex, 3 mg/kg s.c.): 2530 cpm
- SB specific binding, individual animals ([1]; cortex, 3 mg/kg s.c.): 20444 cpm and 19624 cpm and 21700 cpm
- SB specific binding, mean ([1]; cortex, 3 mg/kg s.c.): 20658 cpm
- TB total binding, individual animals ([1]; cortex, 3 mg/kg s.c.): 22963 cpm and 22335 cpm and 24259 cpm
- TB total binding, mean ([1]; cortex, 3 mg/kg s.c.): 23186 cpm
- percent specific binding remaining compared to controls ([1]; cortex, 3 mg/kg s.c.): 90%
- NS non specific binding, individual animals ([1]; cortex, 10 mg/kg s.c.): 2527 cpm and 2575 cpm and 2740 cpm
- NS non specific binding, mean ([1]; cortex, 10 mg/kg s.c.): 2614 cpm
- SB specific binding, individual animals ([1]; cortex, 10 mg/kg s.c.): 19525 cpm and 18340 cpm and 19640 cpm
- SB specific binding, mean ([1]; cortex, 10 mg/kg s.c.): 19168 cpm
- TB total binding, individual animals ([1]; cortex, 10 mg/kg s.c.): 22052 cpm and 20915 cpm and 22380 cpm
- TB total binding, mean ([1]; cortex, 10 mg/kg s.c.): 21782 cpm
- percent specific binding remaining compared to controls ([1]; cortex, 10 mg/kg s.c.): 84%
- NS non specific binding, individual animals ([1]; hippocampus, 0.3 mg/kg s.c.): 2116 cpm and 2294 cpm and 2092 cpm
- NS non specific binding, mean ([1]; hippocampus, 0.3 mg/kg s.c.): 2167 cpm
- SB specific binding, individual animals ([1]; hippocampus, 0.3 mg/kg s.c.): 12566 cpm and 13303 cpm and 16338 cpm
- SB specific binding, mean ([1]; hippocampus, 0.3 mg/kg s.c.): 14069 cpm
- TB total binding, individual animals ([1]; hippocampus, 0.3 mg/kg s.c.): 14682 cpm and 15597 cpm and 18430 cpm
- TB total binding, mean ([1]; hippocampus, 0.3 mg/kg s.c.): 16238 cpm
- percent specific binding remaining compared to controls ([1]; hippocampus, 0.3 mg/kg s.c.): 113%
- NS non specific binding, individual animals ([1]; hippocampus, 1 mg/kg s.c.): 2144 cpm and 1953 cpm and 1913 cpm
- NS non specific binding, mean ([1]; hippocampus, 1 mg/kg s.c.): 2003 cpm
- SB specific binding, individual animals ([1]; hippocampus, 1 mg/kg s.c.): 12048 cpm and 15010 cpm and 14100 cpm
- SB specific binding, mean ([1]; hippocampus, 1 mg/kg s.c.): 13719 cpm
- TB total binding, individual animals ([1]; hippocampus, 1 mg/kg s.c.): 14192 cpm and 16963 cpm and 16013 cpm
- TB total binding, mean ([1]; hippocampus, 1 mg/kg s.c.): 15723 cpm
- percent specific binding remaining compared to controls ([1]; hippocampus, 1 mg/kg s.c.): 110%
- NS non specific binding, individual animals ([1]; hippocampus, 3 mg/kg s.c.): 1859 cpm and 1984 cpm and 1959 cpm
- NS non specific binding, mean ([1]; hippocampus, 3 mg/kg s.c.): 1934 cpm
- SB specific binding, individual animals ([1]; hippocampus, 3 mg/kg s.c.): 11172 cpm and 9232 cpm and 10980 cpm
- SB specific binding, mean ([1]; hippocampus, 3 mg/kg s.c.): 10461 cpm
- TB total binding, individual animals ([1]; hippocampus, 3 mg/kg s.c.): 13031 cpm and 11216 cpm and 12939 cpm
- TB total binding, mean ([1]; hippocampus, 3 mg/kg s.c.): 12395 cpm
- percent specific binding remaining compared to controls ([1]; hippocampus, 3 mg/kg s.c.): 84%
- NS non specific binding, individual animals ([1]; hippocampus, 10 mg/kg s.c.): 1886 cpm and 2078 cpm and 2037 cpm
- NS non specific binding, mean ([1]; hippocampus, 10 mg/kg s.c.): 2000 cpm
- SB specific binding, individual animals ([1]; hippocampus, 10 mg/kg s.c.): 11059 cpm and 10041 cpm and 8937 cpm
- SB specific binding, mean ([1]; hippocampus, 10 mg/kg s.c.): 10012 cpm
- TB total binding, individual animals ([1]; hippocampus, 10 mg/kg s.c.): 12945 cpm and 12119 cpm and 10974 cpm
- TB total binding, mean ([1]; hippocampus, 10 mg/kg s.c.): 12013 cpm
- percent specific binding remaining compared to controls ([1]; hippocampus, 10 mg/kg s.c.): 80%

SMILES: N#Cc1cc(S(=O)(=O)N2C(=O)N(CCCCCN)C(=O)C2Cc2c[nH]c3ccccc23)ccc1Oc1ccc(N)cc1 (stereo not shown) [Compound 42]
- unidirectional brain extraction (BUI experiments), Ringer buffer [2]: 41%
- binding to plasma proteins [3]: 90%
- fraction free in rat plasma ([3]; 50-5000 ng/mL, 37° C.): 10-12%
- fraction taken up by capillaries, of the brain penetration [4]: 5%
- AUC ratio parent drug/radioactivity [5]: 0.7
- f2 (fraction of dose eliminated within λ2) [5]: 67%
